Measured values published in US12185723B2, “Herbicidally active 3-phenylisoxazoline-5-carboxamides of s-containing cyclopentenylcarboxylic esters” (Bayer Aktiengesellschaft, priority 2019, dated 2025).

Columns and labels:
Assay type in all cases: in vivo
Alopecurus myosuroides = assay: Post-emergence herbicidal action against ALOMY; settings: 20 g a.i./ha, visual rating about 3 weeks after treatment
Description: (§1) Post-Emergence Herbicidal Action Against Harmful Plants and Crop Plant Compatibility Seeds of monocotyledonous and dicotyledonous weeds and crop plants are placed in sandy loam in plastic or wood-fibre pots, covered with soil and cultivated in a greenhouse under controlled growth conditions. 2 to 3 weeks after sowing, the test plants are treated at the one-leaf stage. The compounds of the invention, formulated in the form of wettable powders (WP) or as emulsion concentrates (EC), are then sprayed onto the green parts of the plants as aqueous suspension or emulsion with addition of 0.5% additive at a water application rate of 600 l/ha (converted). After the test plants have been kept in the greenhouse under optimum growth conditions for about 3 weeks, the activity of the preparations is rated visually in comparison to untreated controls. For example, 100% activity=the plants have died, 0% activity=like control plants. [table]

Avena fatua = assay: Post-emergence herbicidal action against AVEFA; settings: 20 g a.i./ha, visual rating about 3 weeks after treatment
Description: as §1

Pharbitis purpurea = assay: Post-emergence herbicidal action against PHBPU; settings: 20 g a.i./ha
Description: as §1

Polygonum convolvulus = assay: Post-emergence herbicidal action against POLCO; settings: 20 g a.i./ha
Description: as §1

Veronica persica = assay: Post-emergence herbicidal action against VERPE; settings: 20 g a.i./ha
Description: as §1

DIGSA = assay: Post-emergence herbicidal action against DIGSA; settings: 20 g a.i./ha, visual rating about 3 weeks after treatment
Description: as §1, with “plants.” for “plants. [table]”

Echinochloa crus-galli = assay: Post-emergence herbicidal action against ECHCG; settings: 20 g a.i./ha, visual rating about 3 weeks after treatment
Description: as §1

Setaria viridis = assay: Post-emergence herbicidal action against SETVI; settings: visual rating about 3 weeks after treatment
Description: as §1

Abutilon theophrasti = assay: Post-emergence herbicidal action against ABUTH; settings: 20 g a.i./ha, visual rating about 3 weeks after treatment
Description: as §1

Lolium rigidum = assay: Post-emergence herbicidal action against LOLRI; settings: 20 g a.i./ha, visual rating about 3 weeks after treatment
Description: as §1

Amaranthus retroflexus = assay: Post-emergence herbicidal action against AMARE; settings: 20 g a.i./ha
Description: as §1

SMILES	Herbicidal action against [%] ALOMY (Alopecurus myosuroides) [%]	Herbicidal action against [%] AVEFA (Avena fatua) [%]	Herbicidal action against [%] PHBPU (Pharbitis purpurea) [%]	Herbicidal action against [%] POLCO (Polygonum convolvulus) [%]	Herbicidal action against [%] VERPE (Veronica persica) [%]	Herbicidal action against [%] DIGSA (DIGSA) [%]	Herbicidal action against [%] ECHCG (Echinochloa crus-galli) [%]	Herbicidal action against [%] SETVI (Setaria viridis; 20 g a.i./ha) [%]	Herbicidal action against [%] ABUTH (Abutilon theophrasti) [%]	Herbicidal action against [%] LOLRI (Lolium rigidum) [%]	Herbicidal action against [%] AMARE (Amaranthus retroflexus) [%]	Herbicidal action against [%] SETVI (Setaria viridis; 80 g a.i./ha) [%]
CSCCOC(=O)C1C=CC(NC(=O)C2(C)CC(c3cc(C#N)cc(C#N)c3)=NO2)C1 (centres unmarked) [Example I-52]	90	80	80	80	80							
CSCCOC(=O)C1C=CC(NC(=O)C2(C)CC(c3cc(C)cc(Cl)c3)=NO2)C1 (centres unmarked) [Example I-75]	90	80	80		80	90	90	90	80			
C=CC1(C(=O)NC2C=CC(C(=O)OCCSC)C2)CC(c2cc(C)cc(F)c2)=NO1 (centres unmarked) [Example I-56]	80			80						80		
COC1(C(=O)NC2C=CC(C(=O)OCCSC(F)(F)F)C2)CC(c2cc(F)cc(F)c2)=NO1 (centres unmarked) [Example I-21]	90	80		80	90	80	90	80	80	100		
C[S+]([O-])CCOC(=O)C1C=CC(NC(=O)C2(C)CC(c3cccc(F)c3)=NO2)C1 (mixture of isomers) [Example I-61]	80				80		80	80			80	
CSCCOC(=O)C1C=CC(NC(=O)C2(CF)CC(c3cc(F)cc(F)c3)=NO2)C1 (centres unmarked) [Example I-74]					80	90	90		90	90	80	
C=CCSCCOC(=O)C1C=CC(NC(=O)C2(OC)CC(c3cc(F)cc(F)c3)=NO2)C1 (centres unmarked) [Example I-26]	90	90		80	80	90	80		80	90	80	
CC(=O)CCSCCOC(=O)C1C=CC(NC(=O)C2(C)CC(c3cc(F)cc(F)c3)=NO2)C1 (centres unmarked) [Example I-15]	90			80	80	80	80			80		
CSCCOC(=O)C1C=CC(NC(=O)C2(CCl)CC(c3cc(F)cc(F)c3)=NO2)C1 (centres unmarked) [Example I-60]	80	80		80			80			80	80	
C=CC1(C(=O)NC2C=CC(C(=O)OCCSC)C2)CC(c2cccc(F)c2)=NO1 (centres unmarked) [Example I-35]	90	90	80	90	80	90	90	90		90	80	
CC1(C(=O)NC2C=CC(C(=O)OCCSC3CCCCC3)C2)CC(c2cc(F)cc(F)c2)=NO1 (centres unmarked) [Example I-03]	90		80	80		80	80	80				
CC1(C(=O)NC2C=CC(C(=O)OCCS(C)(=O)=O)C2)CC(c2cc(F)cc(F)c2)=NO1 (centres unmarked) [Example I-14]	90	80	80		90	90	80	90		90	90	
CSCCOC(=O)C1C=CC(NC(=O)C2(C)CC(c3cc(Cl)cc(C#N)c3)=NO2)C1 (centres unmarked) [Example I-72]	90	80		80	80	90	80	90		90	80	
CSCCOC(=O)C1C=CC(NC(=O)C2(CCl)CC(c3cc(F)cc(C#N)c3)=NO2)C1 (centres unmarked) [Example I-58]	90	80		80	80		80					
COC1(C(=O)NC2C=CC(C(=O)OCCSC)C2)CC(c2cc(C)cc(F)c2)=NO1 (centres unmarked) [Example I-62]	90	80	80	80	90	80	80	90		90	90	
CC(C)C(=O)SCCOC(=O)C1C=CC(NC(=O)C2(C)CC(c3cc(F)cc(F)c3)=NO2)C1 (centres unmarked) [Example I-05]	100		80	80	80	80	80	80				
CSCCOC(=O)C1C=CC(NC(=O)C2(C)CC(c3cc(C)cc(F)c3)=NO2)C1 (centres unmarked) [Example I-59]			80		80	90	80				80	
CSCCOC(=O)C1C=CC(NC(=O)C2(C3CC3)CC(c3cc(F)cc(F)c3)=NO2)C1 (centres unmarked) [Example I-27]												90
CSCCOC(=O)C1C=CC(NC(=O)C2(CO)CC(c3cc(F)cc(F)c3)=NO2)C1 (centres unmarked) [Example I-70]	100	80	80	80			90	90				
